ChEMBL document CHEMBL2021911 (Bioorg Med Chem Lett, 2012)
pEC50: −log10 of the molar value. The source made the active and inactive calls. The calls are words filed in the database; no cut-off is given here.

How the values were obtained:
[1] = Clearance in rat at 1 mg/kg, iv and 10 mg/kg, po; type: ADME, organism-based; conditions: in vivo
[2] = Oral bioavailability in rat at 10 mg/kg; type: ADME, organism-based; conditions: in vivo
[3] = biological target: T1, Muscarinic acetylcholine receptor M1 (Homo sapiens) (UniProt P11229); assay: Agonist activity at human muscarinic M1 receptor expressed in TREx293 cells assessed as increase of soluble APPalpha release at 2 uM; type: functional, cell-based; conditions: HEK293
T1 sequence (whole entry): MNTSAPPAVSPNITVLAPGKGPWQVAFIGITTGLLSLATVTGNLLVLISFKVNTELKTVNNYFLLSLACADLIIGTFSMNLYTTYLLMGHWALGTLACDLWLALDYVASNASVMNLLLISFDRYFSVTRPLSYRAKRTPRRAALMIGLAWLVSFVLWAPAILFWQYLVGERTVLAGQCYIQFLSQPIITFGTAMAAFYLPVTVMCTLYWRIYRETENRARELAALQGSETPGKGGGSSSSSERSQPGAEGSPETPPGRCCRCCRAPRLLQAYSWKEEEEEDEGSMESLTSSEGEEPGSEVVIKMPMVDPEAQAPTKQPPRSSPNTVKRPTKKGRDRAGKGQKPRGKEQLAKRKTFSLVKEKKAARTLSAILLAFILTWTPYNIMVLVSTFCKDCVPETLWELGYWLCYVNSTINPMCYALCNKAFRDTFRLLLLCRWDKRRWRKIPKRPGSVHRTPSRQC

[4] = Half life in rat at 1 mg/kg, iv and 10 mg/kg, po; type: ADME, organism-based; conditions: in vivo
[5] = biological target: T2, Muscarinic acetylcholine receptor M4 (Homo sapiens) (UniProt P08173); assay: Agonist activity at human muscarinic M4 receptor at 30 uM by calcium mobilization assay relative to acetylcholine; type: functional
T2 sequence (whole entry): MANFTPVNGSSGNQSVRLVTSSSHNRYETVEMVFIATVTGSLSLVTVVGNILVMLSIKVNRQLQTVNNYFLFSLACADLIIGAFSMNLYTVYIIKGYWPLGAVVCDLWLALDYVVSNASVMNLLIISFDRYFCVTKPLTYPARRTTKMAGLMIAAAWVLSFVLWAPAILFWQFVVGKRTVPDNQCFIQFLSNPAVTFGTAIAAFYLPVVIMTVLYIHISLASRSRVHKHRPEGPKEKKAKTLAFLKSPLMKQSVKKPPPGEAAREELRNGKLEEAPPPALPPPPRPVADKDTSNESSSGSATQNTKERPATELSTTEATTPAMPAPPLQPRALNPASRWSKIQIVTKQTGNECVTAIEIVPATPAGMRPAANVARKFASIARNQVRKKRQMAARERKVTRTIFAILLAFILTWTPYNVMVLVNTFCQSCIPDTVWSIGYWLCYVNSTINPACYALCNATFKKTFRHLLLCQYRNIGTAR

[6] = biological target: T3, Muscarinic acetylcholine receptor M2 (Homo sapiens, UniProt P08172); assay: Agonist activity at human muscarinic M2 receptor by calcium mobilization assay; type: functional; conditions: read-out: EC50
T3 sequence (P08172 whole entry): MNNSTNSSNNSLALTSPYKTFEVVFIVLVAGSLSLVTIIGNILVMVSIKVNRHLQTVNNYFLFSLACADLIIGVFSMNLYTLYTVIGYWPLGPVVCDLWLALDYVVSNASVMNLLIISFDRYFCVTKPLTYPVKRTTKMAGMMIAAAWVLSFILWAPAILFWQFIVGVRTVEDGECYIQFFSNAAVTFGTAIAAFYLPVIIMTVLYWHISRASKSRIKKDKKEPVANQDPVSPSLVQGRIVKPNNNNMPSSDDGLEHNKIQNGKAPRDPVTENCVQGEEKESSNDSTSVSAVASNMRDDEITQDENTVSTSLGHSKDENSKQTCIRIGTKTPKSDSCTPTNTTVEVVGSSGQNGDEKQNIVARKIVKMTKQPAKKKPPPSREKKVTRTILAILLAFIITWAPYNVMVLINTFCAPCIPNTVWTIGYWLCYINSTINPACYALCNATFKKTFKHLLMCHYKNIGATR

[7] = AUC in rat at 1 mg/kg, iv; type: ADME, organism-based; set-up: dose 1 mg/kg, route intravenous; conditions: plasma
[8] = biological target: T4, Muscarinic acetylcholine receptor M2 (Homo sapiens) (UniProt P08172); assay: Agonist activity at human muscarinic M2 receptor at 30 uM by calcium mobilization assay relative to acetylcholine; type: functional
T4 sequence (whole entry): T3 sequence (P08172 whole entry)

[9] = AUC in rat at 10 mg/kg, po; type: ADME, organism-based; set-up: dose 10 mg/kg, route oral; conditions: plasma
[10] = biological target: T5, Muscarinic acetylcholine receptor M1 (Homo sapiens, UniProt P11229); assay: Agonist activity at human muscarinic M1 receptor by calcium mobilization assay; type: functional
T5 sequence (P11229 whole entry): T1 sequence (whole entry)

[11] = biological target: T6, Muscarinic acetylcholine receptor M5 (Homo sapiens) (UniProt P08912); assay: Agonist activity at human muscarinic M5 receptor at 30 uM by calcium mobilization assay relative to acetylcholine; type: functional
T6 sequence (whole entry): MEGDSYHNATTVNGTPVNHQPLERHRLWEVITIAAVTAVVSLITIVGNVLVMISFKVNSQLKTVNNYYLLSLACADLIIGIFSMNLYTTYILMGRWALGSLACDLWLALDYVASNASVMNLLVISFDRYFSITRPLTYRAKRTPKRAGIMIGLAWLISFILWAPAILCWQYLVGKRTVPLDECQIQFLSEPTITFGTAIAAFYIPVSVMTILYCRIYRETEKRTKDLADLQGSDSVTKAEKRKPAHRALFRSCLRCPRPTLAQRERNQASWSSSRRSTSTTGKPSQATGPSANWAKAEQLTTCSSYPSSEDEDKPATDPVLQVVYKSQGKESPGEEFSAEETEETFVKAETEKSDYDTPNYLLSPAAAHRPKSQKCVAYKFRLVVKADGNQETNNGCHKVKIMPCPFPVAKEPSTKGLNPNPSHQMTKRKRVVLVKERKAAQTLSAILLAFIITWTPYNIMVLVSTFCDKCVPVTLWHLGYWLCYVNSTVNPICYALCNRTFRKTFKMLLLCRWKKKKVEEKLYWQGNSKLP

[12] = biological target: T5, Muscarinic acetylcholine receptor M1; assay: Agonist activity at human muscarinic M1 receptor; type: functional; conditions: read-out: EC50
[13] = biological target: Muscarinic acetylcholine receptors; M1 & M2 (Homo sapiens) (UniProt P11229+P08172); assay: Selectivity ratio of EC50 for human muscarinic M2 receptor to EC50 for human muscarinic M1 receptor
[14] = biological target: T1, Muscarinic acetylcholine receptor M1 (Homo sapiens); assay: Agonist activity at human muscarinic M1 receptor at 30 uM relative to acetylcholine; type: functional
[15] = biological target: T7, Muscarinic acetylcholine receptor M3 (Homo sapiens, UniProt P20309); assay: Agonist activity at human muscarinic M3 receptor at 30 uM by calcium mobilization assay relative to acetylcholine; type: functional
Target sequence in this assay (P20309 whole entry, looked up): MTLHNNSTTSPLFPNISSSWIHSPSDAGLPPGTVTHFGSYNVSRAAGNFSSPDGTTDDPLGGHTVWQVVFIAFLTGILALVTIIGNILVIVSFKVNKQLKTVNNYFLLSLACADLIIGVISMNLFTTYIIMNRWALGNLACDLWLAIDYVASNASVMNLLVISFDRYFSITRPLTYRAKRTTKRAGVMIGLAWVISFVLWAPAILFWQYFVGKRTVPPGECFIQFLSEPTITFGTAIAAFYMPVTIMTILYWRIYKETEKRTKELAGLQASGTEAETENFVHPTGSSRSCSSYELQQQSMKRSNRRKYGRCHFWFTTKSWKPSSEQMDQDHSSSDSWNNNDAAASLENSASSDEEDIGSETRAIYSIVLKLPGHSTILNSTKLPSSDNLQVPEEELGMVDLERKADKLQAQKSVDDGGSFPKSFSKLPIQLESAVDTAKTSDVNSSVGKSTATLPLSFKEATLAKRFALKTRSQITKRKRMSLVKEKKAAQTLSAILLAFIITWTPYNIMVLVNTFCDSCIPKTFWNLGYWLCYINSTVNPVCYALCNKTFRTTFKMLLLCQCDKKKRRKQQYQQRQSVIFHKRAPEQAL

[16] = biological target: T8, Muscarinic acetylcholine receptor M4 (Homo sapiens, UniProt P08173); assay: Agonist activity at human muscarinic M4 receptor by calcium mobilization assay; type: functional; conditions: read-out: EC50
T8 sequence (P08173 whole entry): T2 sequence (whole entry)

[17] = Volume of distribution at steady state in rat at 1 mg/kg, iv and 10 mg/kg, po; type: ADME, organism-based; conditions: in vivo, read-out: Vdss
[18] = biological target: T1, Muscarinic acetylcholine receptor M1 (Homo sapiens); assay: Agonist activity at human muscarinic M1 receptor at 30 uM by calcium mobilization assay relative to acetylcholine; type: functional
[19] = biological target: T7, Muscarinic acetylcholine receptor M3; assay: Agonist activity at human muscarinic M3 receptor by calcium mobilization assay; type: functional; conditions: read-out: EC50
Target sequence in this assay (P20309 whole entry): as the sequence (P20309 whole entry, looked up) above

[20] = biological target: T9, Muscarinic acetylcholine receptor M5 (Homo sapiens, UniProt P08912); assay: Agonist activity at human muscarinic M5 receptor by calcium mobilization assay; type: functional; conditions: read-out: EC50
T9 sequence (P08912 whole entry): T6 sequence (whole entry)

Q: What does the source list for `CCOC(=O)N1C2CCC1CC(N1CCC[C@@H](NC(=O)c3ccccc3C)C1)C2` (mixture of isomers)?
A: clearance [1]: 189 mL/min/kg; bioavailability [2]: 70%; Activity [3]: Active; half-life [4]: 46 min; Activity [5]: 28%; pEC50 [6]: 5.74; AUC [7]: 92.2 ng·h/mL; Activity [8]: 66%; AUC [9]: 639 ng·h/mL; pEC50 [10]: 7.77; Activity [11]: 62%; pEC50 [12]: 7.23; Ratio EC50 [13]: 100; Activity [14]: 75%; Activity [15]: 36%; pEC50 [16]: < 5.00; Vd [17]: 11.8 L/kg; Activity [18]: 59%; pEC50 [19]: < 5.00; pEC50 [20]: 5.43
